Test results taken from publication PMC9668969 (Nature Communications, 2022).

Molecular target: T1, W206F ELIC (Dickeya chrysanthemi, UniProt P0C7B7, W205F)
T1 construct: host or cells: OverExpress C43 (DE3) E. coli
Assay: Tryptophan fluorescence emission spectrum with and without agonist
Assay type: biochemical, Erwinia chrysanthemi
Details: W206F 30 mM Cys
Description: To measure the tryptophan (Trp) fluorescence emission of ELIC, WT or W206F ELIC was diluted to 3 ml (0.02 mg/ml) and an emission spectrum was collected in a quartz fluorescence cell using a Fluoromax Plus Spectrofluorometer (Horiba Scientific). […] Trp fluorescence measurements with rapid mixing of agonist was carried out using the SX20 stopped-flow spectrofluorometer, outfitted with a 295 nm LED excitation source. Purified ELIC was diluted to 0.1 mg/ml in Trp Stopped-flow Buffer A (10 mM Tris pH 7.5, 100 mM NaCl, 0.05% DDM). A single mixing experiment was performed by mixing ELIC with equal volumes of Buffer A + propylamine. Propylamine was prepared at varying concentrations at 2x the final concentration. The instrument dead time was ~1 ms, enabling capture of most of the time course of change in Trp fluorescence. The time course of decrease in Trp fluorescence after rapid mixing with propylamine was fit to a single exponential to obtain a time constant for the rate of decrease and a measure of the extent of decrease. All replicates were taken from distinct samples.

T1 sequence (P0C7B7 whole entry W205F): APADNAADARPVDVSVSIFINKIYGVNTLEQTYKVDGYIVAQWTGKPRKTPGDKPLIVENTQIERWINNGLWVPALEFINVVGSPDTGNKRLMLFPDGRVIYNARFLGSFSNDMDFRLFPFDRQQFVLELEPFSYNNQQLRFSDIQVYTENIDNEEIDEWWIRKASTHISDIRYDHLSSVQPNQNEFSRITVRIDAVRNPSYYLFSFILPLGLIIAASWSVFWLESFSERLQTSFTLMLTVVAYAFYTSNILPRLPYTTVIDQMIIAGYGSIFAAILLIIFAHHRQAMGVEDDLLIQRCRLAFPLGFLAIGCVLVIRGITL

## NCCS [cysteamine]
Wavelength 320
  Tryptophan fluorescence emission intensity: 771490
Wavelength 321
  Tryptophan fluorescence emission intensity: 795430
Wavelength 322
  Tryptophan fluorescence emission intensity: 813680
Wavelength 323
  Tryptophan fluorescence emission intensity: 843300
Wavelength 324
  Tryptophan fluorescence emission intensity: 855410
Wavelength 325
  Tryptophan fluorescence emission intensity: 890410
Wavelength 327
  Tryptophan fluorescence emission intensity: 921570
Wavelength 328
  Tryptophan fluorescence emission intensity: 945690
Wavelength 329
  Tryptophan fluorescence emission intensity: 972730
Wavelength 330
  Tryptophan fluorescence emission intensity: 989960
Wavelength 331
  Tryptophan fluorescence emission intensity: 1002600
Wavelength 332
  Tryptophan fluorescence emission intensity: 1020470
Wavelength 333
  Tryptophan fluorescence emission intensity: 1032760
Wavelength 334
  Tryptophan fluorescence emission intensity: 1043250
Wavelength 335
  Tryptophan fluorescence emission intensity: 1051410
Wavelength 336
  Tryptophan fluorescence emission intensity: 1059950
Wavelength 337
  Tryptophan fluorescence emission intensity: 1062210
Wavelength 338
  Tryptophan fluorescence emission intensity: 1071660
Wavelength 339
  Tryptophan fluorescence emission intensity: 1076280
Wavelength 340
  Tryptophan fluorescence emission intensity: 1083710
Wavelength 341
  Tryptophan fluorescence emission intensity: 1085920
Wavelength 342
  Tryptophan fluorescence emission intensity: 1080500
Wavelength 343
  Tryptophan fluorescence emission intensity: 1081010
Wavelength 344
  Tryptophan fluorescence emission intensity: 1074670
Wavelength 345
  Tryptophan fluorescence emission intensity: 1071140
Wavelength 346
  Tryptophan fluorescence emission intensity: 1066530
Wavelength 347
  Tryptophan fluorescence emission intensity: 1060720
Wavelength 348
  Tryptophan fluorescence emission intensity: 1058590
Wavelength 349
  Tryptophan fluorescence emission intensity: 1045760
Wavelength 350
  Tryptophan fluorescence emission intensity: 1042330
Wavelength 351
  Tryptophan fluorescence emission intensity: 1034700
Wavelength 352
  Tryptophan fluorescence emission intensity: 1019030
Wavelength 353
  Tryptophan fluorescence emission intensity: 1010620
Wavelength 354
  Tryptophan fluorescence emission intensity: 993340
Wavelength 355
  Tryptophan fluorescence emission intensity: 980850
Wavelength 356
  Tryptophan fluorescence emission intensity: 973320
Wavelength 357
  Tryptophan fluorescence emission intensity: 961650
Wavelength 358
  Tryptophan fluorescence emission intensity: 938960
Wavelength 359
  Tryptophan fluorescence emission intensity: 924340
Wavelength 360
  Tryptophan fluorescence emission intensity: 898600
Wavelength 361
  Tryptophan fluorescence emission intensity: 886010
Wavelength 362
  Tryptophan fluorescence emission intensity: 867380
Wavelength 363
  Tryptophan fluorescence emission intensity: 844340
Wavelength 364
  Tryptophan fluorescence emission intensity: 830030
Wavelength 365
  Tryptophan fluorescence emission intensity: 813040
Wavelength 366
  Tryptophan fluorescence emission intensity: 786750
Wavelength 367
  Tryptophan fluorescence emission intensity: 769070
Wavelength 368
  Tryptophan fluorescence emission intensity: 749540
Wavelength 369
  Tryptophan fluorescence emission intensity: 729430
Wavelength 370
  Tryptophan fluorescence emission intensity: 711180
Wavelength 371
  Tryptophan fluorescence emission intensity: 692310
Wavelength 372
  Tryptophan fluorescence emission intensity: 672500
Wavelength 373
  Tryptophan fluorescence emission intensity: 652280
Wavelength 374
  Tryptophan fluorescence emission intensity: 629710
Wavelength 375
  Tryptophan fluorescence emission intensity: 618580
Wavelength 376
  Tryptophan fluorescence emission intensity: 599350
Wavelength 377
  Tryptophan fluorescence emission intensity: 580660
Wavelength 378
  Tryptophan fluorescence emission intensity: 563670
Wavelength 379
  Tryptophan fluorescence emission intensity: 543190
Wavelength 380
  Tryptophan fluorescence emission intensity: 522740
Wavelength 381
  Tryptophan fluorescence emission intensity: 502820
Wavelength 382
  Tryptophan fluorescence emission intensity: 487000
Wavelength 383
  Tryptophan fluorescence emission intensity: 475140
Wavelength 384
  Tryptophan fluorescence emission intensity: 456600
Wavelength 385
  Tryptophan fluorescence emission intensity: 440790
Wavelength 386
  Tryptophan fluorescence emission intensity: 423940
Wavelength 387
  Tryptophan fluorescence emission intensity: 405220
Wavelength 388
  Tryptophan fluorescence emission intensity: 397190
Wavelength 389
  Tryptophan fluorescence emission intensity: 381080
Wavelength 390
  Tryptophan fluorescence emission intensity: 363380
Wavelength 391
  Tryptophan fluorescence emission intensity: 352540
Wavelength 392
  Tryptophan fluorescence emission intensity: 336000
Wavelength 393
  Tryptophan fluorescence emission intensity: 325360
Wavelength 394
  Tryptophan fluorescence emission intensity: 311620
Wavelength 395
  Tryptophan fluorescence emission intensity: 300840
Wavelength 396
  Tryptophan fluorescence emission intensity: 285190
Wavelength 397
  Tryptophan fluorescence emission intensity: 272180
Wavelength 398
  Tryptophan fluorescence emission intensity: 260830
Wavelength 399
  Tryptophan fluorescence emission intensity: 250140
Wavelength 400
  Tryptophan fluorescence emission intensity: 241040
Wavelength 401
  Tryptophan fluorescence emission intensity: 226290
Wavelength 402
  Tryptophan fluorescence emission intensity: 221660
Wavelength 403
  Tryptophan fluorescence emission intensity: 211970
Wavelength 404
  Tryptophan fluorescence emission intensity: 203540
Wavelength 405
  Tryptophan fluorescence emission intensity: 194410
Wavelength 406
  Tryptophan fluorescence emission intensity: 184680
Wavelength 407
  Tryptophan fluorescence emission intensity: 177100
Wavelength 408
  Tryptophan fluorescence emission intensity: 169410
Wavelength 409
  Tryptophan fluorescence emission intensity: 164650
Wavelength 410
  Tryptophan fluorescence emission intensity: 155310
Wavelength 411
  Tryptophan fluorescence emission intensity: 149680
Wavelength 412
  Tryptophan fluorescence emission intensity: 144200
Wavelength 413
  Tryptophan fluorescence emission intensity: 137560
Wavelength 414
  Tryptophan fluorescence emission intensity: 131490
Wavelength 415
  Tryptophan fluorescence emission intensity: 127250
Wavelength 416
  Tryptophan fluorescence emission intensity: 120610
Wavelength 417
  Tryptophan fluorescence emission intensity: 116040
Wavelength 418
  Tryptophan fluorescence emission intensity: 113630
Wavelength 419
  Tryptophan fluorescence emission intensity: 109000
Wavelength 420
  Tryptophan fluorescence emission intensity: 104760
